The values below are quoted from earlier work in patent US20090162488A1, “BEVERAGE PRODUCTS AND FLAVOR SYSTEMS HAVING A NON-SWEETENING AMOUNT OF MONATIN” (The Concentrate Manufacturing Company of Ireland, priority 2007, published 2009).

The conditions of this data set: for potency figures: times as sweet as sugar: commonly accepted potency figures, weight basis versus sugar.

The structures appear in SMILES notation. Peptide text beside a SMILES is read from it.

Regarding `CC1=CC(=O)NS(=O)(=O)O1` [Acesulfame-K], the “potency figures: times as sweet as sugar” value is on record as 200 times as sweet as sugar.

Turning to `C[C@@H](NC(=O)[C@@H](N)CC(=O)O)C(=O)NC1C(C)(C)SC1(C)C` [Alitame], the “potency figures: times as sweet as sugar” value is 2,000 times as sweet as sugar. For the compound `COC(=O)[C@H](Cc1ccccc1)NC(=O)[C@@H](N)CC(=O)O` [Aspartame] (H-Asp-Phe-OMe), the “potency figures: times as sweet as sugar” value is recorded as 200 times as sweet as sugar. Turning to `CC1(C)[C@@H](O[C@H]2O[C@H](C(=O)O)[C@@H](O)[C@H](O)[C@H]2O[C@@H]2O[C@H](C(=O)O)[C@@H](O)[C@H](O)[C@H]2O)CC[C@]2(C)[C@H]3C(=O)C=C4[C@@H]5C[C@@](C)(C(=O)O)CC[C@]5(C)CC[C@@]4(C)[C@]3(C)CC[C@@H]12` [Glycyrrhizin], the “potency figures: times as sweet as sugar” value is on record as 30-50 times as sweet as sugar. As for `C[C@H](CC[C@@H](O[C@@H]1O[C@H](CO[C@@H]2O[C@H](CO)[C@@H](O)[C@H](O)[C@H]2O)[C@@H](O)[C@H](O)[C@H]1O[C@@H]1O[C@H](CO)[C@@H](O)[C@H](O)[C@H]1O)C(C)(C)O)[C@H]1CC[C@@]2(C)[C@@H]3CC=C4[C@@H](CC[C@H](O[C@@H]5O[C@H](CO[C@@H]6O[C@H](CO)[C@@H](O)[C@H](O)[C@H]6O)[C@@H](O)[C@H](O)[C@H]5O)C4(C)C)[C@]3(C)[C@H](O)C[C@]12C` [Mogroside V], the “potency figures: times as sweet as sugar” value is given as 100-300 times as sweet as sugar. In the case of `NC(CC(O)(Cc1c[nH]c2ccccc12)C(=O)O)C(=O)O` (stereo not drawn) [Monatin, 2-hydroxy-2-(indol-3-lymethyl)-4-aminoglutaric acid], the sweetness potency result (versus sugar (i.e., sucrose)) was “about 2000 times as sweet as sugar”. For `COc1ccc(CCC(=O)c2c(O)cc(O[C@@H]3O[C@H](CO)[C@@H](O)[C@H](O)[C@H]3O[C@@H]3O[C@@H](C)[C@H](O)[C@@H](O)[C@H]3O)cc2O)cc1O` [Neohesperidin dihydrochalcone], the “potency figures: times as sweet as sugar” value is listed as 300 times as sweet as sugar.

`COC(=O)[C@H](Cc1ccccc1)NC(=O)[C@H](CC(=O)O)NCCC(C)(C)C` [Neotame]: the “potency figures: times as sweet as sugar” value was 8,000 times as sweet as sugar. As for `C=C1C[C@@]23CC[C@H]4[C@@](C)(CCC[C@@]4(C)C(=O)O[C@@H]4O[C@H](CO)[C@@H](O)[C@H](O)[C@H]4O)[C@@H]2CC[C@]1(O[C@@H]1O[C@H](CO)[C@@H](O)[C@H](O[C@@H]2O[C@H](CO)[C@@H](O)[C@H](O)[C@H]2O)[C@H]1O[C@@H]1O[C@H](CO)[C@@H](O)[C@H](O)[C@H]1O)C3` [Rebaudioside A], the “potency figures: times as sweet as sugar” value was 150-300 times as sweet as sugar.

With `O=C1NS(=O)(=O)c2ccccc21` [Saccharin], the “potency figures: times as sweet as sugar” value was 300 times as sweet as sugar. Consider `C=C1C[C@@]23CC[C@H]4[C@@](C)(CCC[C@@]4(C)C(=O)O[C@@H]4O[C@H](CO)[C@@H](O)[C@H](O)[C@H]4O)[C@@H]2CC[C@]1(O[C@@H]1O[C@H](CO)[C@@H](O)[C@H](O)[C@H]1O[C@@H]1O[C@H](CO)[C@@H](O)[C@H](O)[C@H]1O)C3` [Stevioside], for which the “potency figures: times as sweet as sugar” value was 100-250 times as sweet as sugar. In the case of `OC[C@H]1O[C@H](O[C@]2(CCl)O[C@H](CCl)[C@@H](O)[C@@H]2O)[C@H](O)[C@@H](O)[C@H]1Cl` [Sucralose], the “potency figures: times as sweet as sugar” value is given as 600 times as sweet as sugar.
